Laboratory results from patent US20190070170A1, “METHOD OF S[…]-1” (Macau University of Science and Technology, priority 2017, published 2019).

Assays:
[1] = tested on: collagen-induced arthritis; assay: Collagen-II induced arthritis (CIA) in DBA/1 mice; type: in vivo; conditions: CIA DBA/1 mice; MTX 10 mg/kg/week p.o.
Experimental: Female DBA/1 mice (8-9 weeks old) were purchased from Shanghai SiLaike (SLAC) Laboratory Animal Company (Shanghai, China) and fed with a chow diet and water at room temperature. Equal volume of complete Freuend's adjuvant (CFA) and Bovine Type II Collagen (CII) were mixed and emulsified using a homogenizer (13,000 rpm) on ice. On day 0, DBA/1 mice were immunized by injecting 50 μl of CII in CFA in the tail, approximately 2 cm from the base of the tail. After injection, on day 18, mice with one or more than one paw inflamed were chosen and randomly divided into model group, SIN (100 mg/kg, i.p.) treatment group and MTX (10 mg/kg/week, p.o) treatment group, the mice without immunization were used as normal control. On day 21, these chosen mice were boosted through injecting the same volume of CII in IFA same as the day 0 immunization procedure. The incidence of joint swelling in each group was recorded every two days since drug treatment. Paw thickness (at the ankle joints of the hind paws) of each mouse was obtained by using vernier caliper to record the severity of paw swelling.
Arthritis score of each paw was evaluated every two days during experiment with the following criteria: • 0: no evidence of erythema and swelling; • 1: erythema and mild swelling confirmed to the tarsals or ankle joint; • 2: erythema and mild swelling extending from the ankle to the tarsal joints; • 3: erythema and moderate swelling extending from the ankle to metatarsal joints; and • 4: erythema and severe swelling encompass the ankle, foot and digits, or ankylosis of the limb.
The score of each paw was summed for a score of 0-16 for each mouse. Mice were then sacrificed and hind paws were removed and freshly frozen in liquid nitrogen and stored at −80° C. until used.

[2] = tested on: mPGES-1; assay: mPGES-1 protein expression in hind paws of CIA DBA/1 mice; type: in vivo; conditions: SIN 100 mg/kg i.p. or MTX 10 mg/kg/week p.o.
Experimental: Female DBA/1 mice (8-9 weeks old) were purchased from Shanghai SiLaike (SLAC) Laboratory Animal Company (Shanghai, China) and fed with a chow diet and water at room temperature. Equal volume of complete Freuend's adjuvant (CFA) and Bovine Type II Collagen (CII) were mixed and emulsified using a homogenizer (13,000 rpm) on ice. On day 0, DBA/1 mice were immunized by injecting 50 μl of CII in CFA in the tail, approximately 2 cm from the base of the tail. […] The incidence of joint swelling in each group was recorded every two days since drug treatment. […]
Frozen paws were pulverized in liquid nitrogen using a stainless steel mortar and pestle, then re-suspended in 8 volumes of ice-cold PBS from Invitrogen (San Diego, Calif., USA) with 2.6 mM DTT from Promega (Madison, Wis., USA) and 2×Complete Protease Inhibitor mixture from Roche (Mannheim, Germany), and homogenized on ice bath using a tissue homogenizer from T25 digital, IKA (Stanfen, Germany) at 10,000 rpm/min for 5 min. […] The protein concentrations were measured using a Bio-Rad protein assay kit (Hercules, Calif., USA). […]
Whole-cell and nuclear proteins were obtained using RIPA lysis buffer (CST, Boston, Mass., USA) and Nuclear and Cytoplasmic Extraction Reagents kit from Thermo Scientific (Asheville, N.C., USA), respectively. […] The levels of protein expression were measured using Odyssey v3.0 software from Li-COR (Lincoln, Nebr., USA).

[3] = previous studies (Evans 1994; Werner et al. 1992); cited from earlier work

Structure (SMILES) | arthritis in CIA mice [1] | mPGES-1 protein expression in inflamed hind paws [2] | cardiac side effects [3]
CN(Cc1cnc2nc(N)nc(N)c2n1)c1ccc(C(=O)N[C@@H](CCC(=O)O)C(=O)O)cc1 [MTX, methotrexate, reference compound] | no observable effects | no observable effects | –
C[C@@H]1C[C@H]2[C@@H]3CCC4=CC(=O)C=C[C@]4(C)[C@@]3(F)[C@@H](O)C[C@]2(C)[C@@]1(O)C(=O)CO [DEX, Dexamethasone] | – | – | faster heart rates, transient absolute myocardial hypertrophy and increase in systemic blood pressure
